In patent publication US20240116985A1, “STAPLED PEPTIDES AND METHODS THEREOF” (priority 2020, published 2024):
Converted amounts (≈) assume the structure as drawn. Where two headings read alike, the source gives them in different places.

Tests used:
[1] = target: T1, full-length beta-Catenin (Uniprot ID P35222) (Homo sapiens, UniProt P35222); test: Fluorescence polarization IC50 (beta-catenin / 5FAM-TCF4 10-53 competition); assay type: binding; conditions: fluorescence polarization
T1 construct: 10 nM full-length beta-Catenin (Uniprot ID P35222)
T1 sequence (P35222 1-781): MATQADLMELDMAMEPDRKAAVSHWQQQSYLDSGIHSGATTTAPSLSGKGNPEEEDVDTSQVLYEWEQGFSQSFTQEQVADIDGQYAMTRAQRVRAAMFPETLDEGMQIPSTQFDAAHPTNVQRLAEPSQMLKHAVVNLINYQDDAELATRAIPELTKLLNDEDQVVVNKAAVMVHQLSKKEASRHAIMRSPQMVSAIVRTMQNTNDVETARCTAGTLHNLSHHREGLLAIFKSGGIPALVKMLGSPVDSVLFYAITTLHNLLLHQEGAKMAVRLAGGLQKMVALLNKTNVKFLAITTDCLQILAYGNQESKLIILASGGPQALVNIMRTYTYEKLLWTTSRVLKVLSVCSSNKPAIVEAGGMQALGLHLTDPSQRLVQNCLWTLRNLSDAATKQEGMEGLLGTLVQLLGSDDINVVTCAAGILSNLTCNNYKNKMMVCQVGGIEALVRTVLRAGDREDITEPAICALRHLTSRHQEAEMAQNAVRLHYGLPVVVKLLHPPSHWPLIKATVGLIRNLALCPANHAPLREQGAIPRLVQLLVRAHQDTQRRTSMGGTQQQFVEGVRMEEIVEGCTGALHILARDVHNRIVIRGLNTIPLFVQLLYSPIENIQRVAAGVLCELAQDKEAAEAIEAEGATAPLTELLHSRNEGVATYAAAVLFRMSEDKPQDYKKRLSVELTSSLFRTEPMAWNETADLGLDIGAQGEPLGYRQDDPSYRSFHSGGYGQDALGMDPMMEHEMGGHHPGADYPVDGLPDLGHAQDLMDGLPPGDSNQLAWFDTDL

Solubility in PBS = assay type: physicochemical
Outline: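 HPLC quantitation of peptide remaining in the PBS supernatant after ultracentrifugation, referenced to a 50 μM solution in DMSO.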

| SMILES | IC50 ([1]; read-out: beta-Catenin FP IC50) [µM] | Solubility (Solubility in PBS) [µM] | Solubility (Solubility in PBS; Solubility (uM)) [µM] | IC50 ([1]; beta-catenin, read-out: FP EC50) [µM] |
| --- | --- | --- | --- | --- |
| CC(=O)N1CCC[C@]12CC=CCCCC1(CCCC=CCCCCCC[C@@](C)(C(=O)N[C@@H](Cc3ccccc3Cl)C(=O)N[C@@H](Cc3csc4ccccc34)C(=O)N[C@@H](CO)C(N)=O)NC(=O)[C@H](CC(C)C)NC(=O)[C@H](Cc3ccccc3)NC(=O)[C@H](C)NC(=O)[C@H](C)NC(=O)[C@H](CC(=O)O)NC(=O)[C@H](CC(=O)O)NC1=O)NC(=O)[C@H](CC(C)(C)C)NC(=O)[C@H](CC(=O)O)NC2=O (stereo partly drawn) [I-1189, Ac-PL3-Asp-Npg-B5-Asp-Asp-Ala-Ala-Phe-Leu-S8-2C1F-BztA-Ser-NH2] | 0.0945 | 10 (≈ 18.6 µg/mL) |  |  |
| CC(=O)N1CCC[C@]12CC=CCCCC1(CCCC=CCCCOC(=O)N3CC[C@@](C(=O)N[C@@H](Cc4ccccc4Cl)C(=O)N[C@@H](Cc4csc5ccccc45)C(=O)N[C@@H](CCC(N)=O)C(N)=O)(C3)NC(=O)[C@H](CC(C)C)NC(=O)[C@H](Cc3ccccc3)NC(=O)[C@H](C)NC(=O)[C@H](C)NC(=O)[C@H]([C@@H](C)O)NC(=O)[C@H](CC(=O)O)NC1=O)NC(=O)[C@H](CC1CCCCC1)NC(=O)[C@H](CC(=O)O)NC2=O (stereo partly drawn) [I-1176, Ac-PL3-Asp-Cha-B5-Asp-Thr-Ala-Ala-Phe-Leu-PyrS2-2C1F-BztA-Gln-NH2] | 0.169 | 10 (≈ 19.6 µg/mL) |  |  |
| CC(=O)N1CCC[C@]12CC=CCCCC1(CCCC=CCCCOC(=O)N3CC[C@@](C(=O)N[C@@H](Cc4ccccc4Cl)C(=O)N[C@@H](Cc4csc5ccccc45)C(=O)N[C@@H](CO)C(N)=O)(C3)NC(=O)[C@H]([C@@H](C)O)NC(=O)[C@H](Cc3ccccc3)NC(=O)[C@H](C)NC(=O)[C@H](CC(C)C)NC(=O)[C@H](CC(=O)O)NC(=O)[C@H](CC(=O)O)NC1=O)NC(=O)[C@H](Cc1ccccc1)NC(=O)[C@H](CC(=O)O)NC2=O (stereo partly drawn) [I-1156, Ac-PL3-Asp-Phe-B5-Asp-Asp-Leu-Ala-Phe-Thr-PyrS2-2C1F-BztA-Ser-NH2] | 0.014 |  | 48 (≈ 93.8 µg/mL) |  |
| CC(=O)N1CCC[C@]12CC=CCCCC1(CCCC=CCCCOC(=O)N3CC[C@@](C(=O)N[C@@H](Cc4ccccc4C(F)(F)F)C(=O)N[C@@H](Cc4csc5ccccc45)C(=O)N[C@H](CO)[C@@H](C)O)(C3)NC(=O)[C@H](Cc3ccccc3)NC(=O)[C@H](Cc3ccccc3)NC(=O)[C@H](C)NC(=O)[C@H](C)NC(=O)[C@H](Cc3cccc(C(=O)O)c3)NC(=O)[C@H](CC(=O)O)NC1=O)NC(=O)[C@H](CC(C)(C)C)NC(=O)[C@H](CC(=O)O)NC2=O (stereo partly drawn) [I-1343, Ac-PL3-Asp-Npg-B5-Asp-3COOHF-Ala-Ala-Phe-Phe-PyrS2-2F3MeF-BztA-Thro1] | 0.15 | 10 (≈ 20.5 µg/mL) |  |  |
| CC(=O)N1CCC[C@]12CC=CCCCC1(CCCC=CCCCOC(=O)N3CC[C@@](C(=O)N[C@@H](Cc4ccccc4Cl)C(=O)N[C@@H](Cc4csc5ccccc45)C(=O)N[C@H](CO)[C@@H](C)O)(C3)NC(=O)[C@H](CC(C)C)NC(=O)[C@H](Cc3ccccc3)NC(=O)[C@H](C)NC(=O)[C@H](C)NC(=O)[C@H](CC(=O)O)NC(=O)[C@H](CC(=O)O)NC1=O)NC(=O)[C@H](CC1CCCCC1)NC(=O)[C@H](CC(=O)O)NC2=O (stereo partly drawn) [I-1307, Ac-PL3-Asp-Cha-B5-Asp-Asp-Ala-Ala-Phe-Leu-PyrS2-2C1F-BztA-Thro1] | 0.021 |  | 20 (≈ 38.6 µg/mL) |  |
| CC(=O)N1CCC[C@]12CC=CCCCC1(CCCC=CCCCOC(=O)N3CC[C@@](C(=O)N[C@@H](Cc4ccccc4)C(=O)N[C@@H](Cc4cccc5ccccc45)C(=O)N[C@@H](CO)C(N)=O)(C3)NC(=O)[C@H]([C@@H](C)O)NC(=O)[C@H](Cc3ccccc3)NC(=O)[C@H](C)NC(=O)[C@H](C)NC(=O)[C@H]([C@@H](C)O)NC(=O)[C@H](CC(=O)O)NC1=O)NC(=O)[C@H](CC(C)(C)C)NC(=O)[C@H](CC(=O)O)NC2=O (stereo partly drawn) [I-1272, Ac-PL3-Asp-Npg-B5-Asp-Thr-Ala-Ala-Phe-Thr-PyrS2-Phe-1NapA-Ser-NH2] | 0.331 |  | 21 (≈ 38.6 µg/mL) |  |
| CC(=O)N1CCC[C@]12CC=CCCCC1(CCCC=CCCCCCC[C@@](C)(C(=O)N[C@@H](Cc3ccsc3)C(=O)N[C@@H](Cc3csc4ccccc34)C(=O)N[C@H](C(N)=O)[C@@H](C)O)NC(=O)[C@H](CC(C)C)NC(=O)[C@H](Cc3ccccc3)NC(=O)[C@H](C)NC(=O)[C@H](C)NC(=O)[C@H](CC(=O)O)NC(=O)[C@H](CC(=O)O)NC1=O)NC(=O)[C@H](CC(C)(C)C)NC(=O)[C@H](CC(=O)O)NC2=O (stereo partly drawn) [I-1191, Ac-PL3-Asp-Npg-B5-Asp-Asp-Ala-Ala-Phe-Leu-S8-3Thi-BztA-Thr-NH2] | 0.0385 | 10 (≈ 18.5 µg/mL) |  |  |
| CC(=O)N1CCC[C@]12CC=CCCCC1(CCCC=CCCCOC(=O)N3CC[C@@](C(=O)N[C@@H](Cc4ccc(C#N)cc4)C(=O)N[C@@H](Cc4csc5ccccc45)C(=O)N[C@@H](CCC(N)=O)C(N)=O)(C3)NC(=O)[C@H](CC(C)C)NC(=O)[C@H](Cc3ccccc3)NC(=O)[C@H](C)NC(=O)[C@H](C)NC(=O)[C@H](CC(=O)O)NC(=O)[C@H](CC(=O)O)NC1=O)NC(=O)[C@H](CC(C)(C)C)NC(=O)[C@H](CC(=O)O)NC2=O (stereo partly drawn) [I-1205, Ac-PL3-Asp-Npg-B5-Asp-Asp-Ala-Ala-Phe-Leu-PyrS2-4CNF-BztA-Gln-NH2] | 0.987 | 50 (≈ 96.8 µg/mL) |  |  |
| CC(=O)N1CCC[C@]12CC=CCCCC1(CCCC=CCCCOC(=O)N3CC[C@@](C(=O)N[C@@H](Cc4ccccc4Cl)C(=O)N[C@@H](Cc4csc5ccccc45)C(=O)N[C@@H](CC(C)C)C(N)=O)(C3)NC(=O)[C@H](CO)NC(=O)[C@H](Cc3ccccc3)NC(=O)[C@H](C)NC(=O)[C@H](C)NC(=O)[C@H](CC(=O)O)NC(=O)[C@H](CC(=O)O)NC1=O)NC(=O)[C@H](Cc1ccccc1)NC(=O)[C@H](CC(=O)O)NC2=O (stereo partly drawn) [I-1144, Ac-PL3-Asp-Phe-B5-Asp-Asp-Ala-Ala-Phe-Ser-PyrS2-2C1F-BztA-Leu-NH2] | 0.028 |  | 32 (≈ 61.6 µg/mL) |  |
| CC(=O)N1CCC[C@]12CC=CCCCC1(CCCC=CCCCOC(=O)N3CC[C@@](C(=O)N[C@@H](Cc4ccccc4)C(=O)N[C@@H](Cc4csc5ccccc45)C(=O)N[C@@H](CCC(N)=O)C(N)=O)(C3)NC(=O)[C@H](CC(C)C)NC(=O)[C@H](Cc3ccccc3)NC(=O)[C@H](C)NC(=O)[C@H](CCCCNC(C)C)NC(=O)[C@H]([C@@H](C)O)NC(=O)[C@H](CC(=O)O)NC1=O)NC(=O)[C@H](CC(C)(C)C)NC(=O)[C@H](CC(N)=O)NC2=O (stereo partly drawn) [I-1288, Ac-PL3-Asn-Npg-B5-Asp-Thr-iPrLys-Ala-Phe-Leu-PyrS2-Phe-BztA-Gln-NH2] | 1.16 | 10 (≈ 20 µg/mL) |  | 1.16 |
| CC(=O)N1CCC[C@]12CC=CCCCC1(CCCC=CCCCOC(=O)N3CC[C@@](C(=O)N[C@@H](Cc4ccsc4)C(=O)N[C@@H](Cc4csc5ccccc45)C(=O)N[C@@H](CCC(N)=O)C(N)=O)(C3)NC(=O)[C@H](CC(N)=O)NC(=O)[C@H](Cc3ccccc3)NC(=O)[C@H](C)NC(=O)[C@H](C)NC(=O)[C@H](CC(=O)O)NC(=O)[C@H](CO)NC1=O)NC(=O)[C@H](CC(C)(C)C)NC(=O)[C@H](CC(=O)O)NC2=O (stereo partly drawn) [I-1208, Ac-PL3-Asp-Npg-B5-Ser-Asp-Ala-Ala-Phe-Asn-PyrS2-3Thi-BztA-Gln-NH2] | 0.349 |  | 44 (≈ 83.2 µg/mL) |  |
